The results in this text go back to patent publication US20260305610A1, “TRIAZOLE COMPOUND, AND PREPARATION METHOD THEREFOR, HERBICIDAL COMPOSITION AND USE THEREOF” (QINGDAO KINGAGROOT CHEMICAL COMPOUND CO., LTD., priority 2023, published 2026).

Holding throughout (type): in vivo
For one data set, the system named is Digitaria sanguinalis. The data set is described as follows: Pre-emergence sealing experiment for water-seeding. Further details: key: 9: completely dead; 8: growth control rate is greater than or equal to 90% and less than 100%; 7: growth control rate is greater than or equal to 80% and less than 90%; 6: growth control rate is greater than or equal to 70% and less than 80%; growth control rate is greater than or equal to 50% and less than 70%; 4: growth control rate is greater than or equal to 30% and less than 50%; growth control rate is greater than or equal to 20% and less than 30%; growth control rate is greater than or equal to 10% and less than 20%; growth control rate is less than 10%; 0: no effect. Conditions: 15 days. From the text:
(§1) The activity level criteria for plant damage (i.e., growth control rate) are as follows: • Level 9: completely dead; • Level 8: growth control rate is greater than or equal to 90% and less than 100%; • Level 7: growth control rate is greater than or equal to 80% and less than 90%; • Level 6: growth control rate is greater than or equal to 70% and less than 80%; • Level 5: growth control rate is greater than or equal to 50% and less than 70%; • Level 4: growth control rate is greater than or equal to 30% and less than 50%; • Level 3: growth control rate is greater than or equal to 20% and less than 30%; • Level 2: growth control rate is greater than or equal to 10% and less than 20%; • Level 1: growth control rate is less than 10%; • Level 0: no effect.
(§2) The seeds of Leptochloa chinensis, Digitaria sanguinalis, Monochoria vaginalis (sulfonylurea-resistant strain, collected from Hunan, China), Cyperus iria (sulfonylurea-resistant strain, collected from Jiangsu, China), Huaidao (rice cultivar), etc. were broadcasted on the surface of nutrition bowls filled with soil and fully covered by soil. The prepared nutrition bowls were then placed in a cultivation box, with water filled to a suitable height to keep the soil in the nutrition bowls moist. The test compounds of the present invention were individually dissolved with mixed solutions of acetone and Tween-80, then diluted into solution of a certain concentration using a certain amount of water and sprayed using a spray tower. The plants were placed on a greenhouse seedbed and cultured for 15 days, and the experimental results were then collected. The compounds were applied at 120, 60, 30 and 15 g a.i./ha in triplicate and the results were averaged. The effects were evaluated according to the above activity level criteria.

The subject of another data set is Leptochloa chinensis. The data set is described as follows: Pre-emergence sealing experiment for water-seeding. Set-up: key: 9: completely dead; 8: growth control rate is greater than or equal to 90% and less than 100%; 7: growth control rate is greater than or equal to 80% and less than 90%; 6: growth control rate is greater than or equal to 70% and less than 80%; growth control rate is greater than or equal to 50% and less than 70%; 4: growth control rate is greater than or equal to 30% and less than 50%; growth control rate is greater than or equal to 20% and less than 30%; growth control rate is greater than or equal to 10% and less than 20%; growth control rate is less than 10%; 0: no effect. Conditions: 15 days.
Source text: as §1, §2

A further data set relates to Monochoria vaginalis. The data set is described as follows: Pre-emergence sealing experiment for water-seeding. Conditions: 15 days, sulfonylurea-resistant strain. Set-up: key: 9: completely dead; 8: growth control rate is greater than or equal to 90% and less than 100%; 7: growth control rate is greater than or equal to 80% and less than 90%; 6: growth control rate is greater than or equal to 70% and less than 80%; growth control rate is greater than or equal to 50% and less than 70%; 4: growth control rate is greater than or equal to 30% and less than 50%; growth control rate is greater than or equal to 20% and less than 30%; growth control rate is greater than or equal to 10% and less than 20%; growth control rate is less than 10%; 0: no effect.
Source text: as §1, §2

Another data set deals with Cyperus iria. The data set is described as follows: Pre-emergence sealing experiment for water-seeding. Set-up: key: 9: completely dead; 8: growth control rate is greater than or equal to 90% and less than 100%; 7: growth control rate is greater than or equal to 80% and less than 90%; 6: growth control rate is greater than or equal to 70% and less than 80%; growth control rate is greater than or equal to 50% and less than 70%; 4: growth control rate is greater than or equal to 30% and less than 50%; growth control rate is greater than or equal to 20% and less than 30%; growth control rate is greater than or equal to 10% and less than 20%; growth control rate is less than 10%; 0: no effect. Conditions: 15 days, sulfonylurea-resistant strain.
Source text: as §1, §2

The next data set relates to weeds. The data set can be described thus: Activity assay of compositions: soil sealing treatment (S), fresh weight inhibition and combined effect (Gowing method). Conditions: Silene conoidea, 21 d. The procedure: The required active ingredient B was purchased from a reagent company or a technical material manufacturer or synthesized by a conventional method. The technical materials were all dissolved with acetone solvents and diluted with aqueous solution of 0.1% Tween-80 emulsifier, which should be used immediately after dilution.
• Weeds were cultivated in a controllable sunlight greenhouse at 20 to 30° C., in natural light, and with relative humidity of 57% to 72%. […] The test soil was quantitatively filled to ¾ of the pot, and then watered from the bottom of the pot to completely wet the soil to saturation. The test weed seeds were accelerated to just germinate, and then evenly and quantitatively broadcasted on the soil surface, covered with 0.5-1 cm soil according to the sizes of the seeds, and ready for use 72 hours after sowing.
Each treatment was repeated 4 times. Four pots with 20 weed seeds sowed per pot were treated each time.
The well-sowed test materials were evenly placed on a platform with an area of 0.5 m^2, and foliage spraying was carried out by the 3WP-2000-type walking spray tower at a dosage of 450 kg/ha and a spray pressure of 0.3 MPa. After all the solution was sprayed, the air valve was closed. And 30 seconds later, the door of the spray tower was opened, and the nutritional bowl was taken out. Next, the air valve was opened, and the spray tube was cleaned by spraying 50 ml of water.
A method for investigating absolute numbers was employed. Whole seedlings of survival weeds were cut off along the soil surface with a blade, and the fresh weight of the weeds was weighed using an analytical balance. For dead weeds, the fresh weight thereof was zero.
The investigation was performed 21 days after the treatment for once in total.
The theoretical fresh weight inhibition rate of a mixed combination of each treatment was calculated by the Gowing method (E0=X+Y−X*Y/100). Then compared with the measured inhibition rate (E), the type of the combined effect of the combination of the two on weeds was evaluated, which was a synergistic effect when E−E0>10%; an antagonistic effect when E−E0<−10%; an additional effect when −10%≤E−E0≤10%. An optimal ratio was determined according to factors such as the actual control effects, characteristics of herbicides, balance of the formulation, etc. In the formula, X represents the fresh weight inhibition rate of the active ingredient A in a dosage of P; Y represents the fresh weight inhibition rate of the active ingredient B in a dosage of Q. The statistical results are shown in Table 4.

For data set [1], the system named is monocotyledonous and dicotyledonous weeds. The data set can be described thus: Pre-emergence test experiment (weeds). Further details: key: 9: completely dead; 8: growth control rate is greater than or equal to 90% and less than 100%; 7: growth control rate is greater than or equal to 80% and less than 90%; 6: growth control rate is greater than or equal to 70% and less than 80%; growth control rate is greater than or equal to 50% and less than 70%; 4: growth control rate is greater than or equal to 30% and less than 50%; growth control rate is greater than or equal to 20% and less than 30%; growth control rate is greater than or equal to 10% and less than 20%; growth control rate is less than 10%; 0: no effect. Conditions: 30 g a.i./ha.

The next data set relates to major crops. The data set can be described thus: Pre-emergence test experiment (crops). Set-up: key: 9: completely dead; 8: growth control rate is greater than or equal to 90% and less than 100%; 7: growth control rate is greater than or equal to 80% and less than 90%; 6: growth control rate is greater than or equal to 70% and less than 80%; growth control rate is greater than or equal to 50% and less than 70%; 4: growth control rate is greater than or equal to 30% and less than 50%; growth control rate is greater than or equal to 20% and less than 30%; growth control rate is greater than or equal to 10% and less than 20%; growth control rate is less than 10%; 0: no effect. Conditions: 30 g a.i./ha.

The test system of data set [2] is Echinochloa crusgalli, Schoenoplectiella juncoides and Bidens tripartita. The data set is described as follows: Resistance of collected weed seeds to pyrazosulfuron-ethyl. Conditions: conventional doses; seeds collected from Heilongjiang, China.

Structures are written as SMILES.

With `COC(=O)c1ccccc1CS(=O)(=O)NC(=O)Nc1nc(OC)cc(OC)n1` [Bensulfuron-methyl, bensulfuron-methyl, reference compound], the “activity level (growth control rate, fresh weight), Digitaria sanguinalis” value with Digitaria sanguinalis (30 g a.i./ha) is 4 (growth control rate is greater than or equal to 30% and less than 50%). Further, in the data set with Leptochloa chinensis (30 g a.i./ha), the “activity level (growth control rate, fresh weight), Leptochloa chinensis” value is 3 (growth control rate is greater than or equal to 20% and less than 30%). The “activity level (growth control rate, fresh weight), Monochoria vaginalis” value with Monochoria vaginalis (30 g a.i./ha) was 2 (growth control rate is greater than or equal to 10% and less than 20%). Also, in the data set on Cyperus iria (30 g a.i./ha), the “activity level (growth control rate, fresh weight), Cyperus iria” value was 5 (growth control rate is greater than or equal to 50% and less than 70%). The results for the “Control effect of B applied alone in a corresponding dose (%)” value with weeds (B 15 g a.i./ha) and in the data set on weeds (B 30 g a.i./ha) were 43.7% and 60.5%, respectively.

Consider `COCc1ccc(-n2cnc(C(F)(F)F)n2)nc1Oc1cccc(C(F)(F)F)c1` [Compound 23], for which the “activity level (growth control rate, fresh weight), Digitaria sanguinalis” value in the data set on Digitaria sanguinalis (15 g a.i./ha) was 9. In addition, in the data set on Leptochloa chinensis (15 g a.i./ha), the “activity level (growth control rate, fresh weight), Leptochloa chinensis” value turned out to be 9. Also, in the data set on Monochoria vaginalis (15 g a.i./ha), the “activity level (growth control rate, fresh weight), Monochoria vaginalis” value was determined as 9. Further, in the data set on Cyperus iria (15 g a.i./ha), the “activity level (growth control rate, fresh weight), Cyperus iria” value stood at 9. In addition, the “Pre-emergence activity level (growth control rate) on Amaranthus retroflexus” value in data set [1] (Amaranthus retroflexus) is recorded as 9. For the same compound, the “Pre-emergence activity level (growth control rate) on Descurainia sophia” value in data set [1] (Descurainia sophia) was found to be 9. In data set [1] (Digitaria sanguinalis), the “Pre-emergence activity level (growth control rate) on Digitaria sanguinalis” value came out at 9. The “Pre-emergence activity level (growth control rate) on Setaria viridis” value in data set [1] (Setaria viridis) is 8 (growth control rate is greater than or equal to 90% and less than 100%). In addition, the “Pre-emergence activity level (growth control rate) on Solanum nigrum” value in data set [1] (Solanum nigrum) amounted to 9. Besides, in data set [1] (Veronica), the “Pre-emergence activity level (growth control rate) on Veronica” value stood at 9. In the data set with major crops (Corn), the “Pre-emergence plant damage level (growth control rate) on Corn” value came out at 0. Further, the “Pre-emergence plant damage level (growth control rate) on Cotton” value with major crops (Cotton) amounted to 0. For the same compound, the “Pre-emergence plant damage level (growth control rate) on Soybean” value with major crops (Soybean) is listed as 0.

For `CCOC(=O)c1cnn(C)c1S(=O)(=O)NC(=O)Nc1nc(OC)cc(OC)n1` [pyrazosulfuron-ethyl, reference compound], the “resistance of collected weed seeds” value in data set [2] was “resistant to conventional doses”. Besides, the “Control effect of B applied alone in a corresponding dose (%)” value is on record as 50.4% with weeds (B 15 g a.i./ha) and 65.6% in the data set with weeds (B 30 g a.i./ha).
